Experimental findings from patent publication US20220402948A1, “EGFR INHIBITOR, COMPOSITION AND PREPARATION METHOD THEREFOR” (BETTA PHARMACEUTICALS CO., LTD., priority 2019, published 2022) are described below.

A value given as a limit tells only on which side of the number the result lay.

For one assay, the system named is A431. Briefly: A431 cell proliferation assay (CellTiter Glo, 72 hours). In kind it is cell-based. The settings on record: Homo sapiens, A-431, 72 h, cell proliferation, A431, 72 hours, Table 2; read-out: A431 IC50. The procedure:
(§1) Cell line: Ba/F3 cells with EGFR Δ19del/T790M/C797S mutation gene stably overexpressed named Ba/F3-Δ119del/T90M/C797S, and A431 and Ba/F3-EGFR wild-type cell line.
RPMI 1640 and 10% FBS and 1% PS; DMEM and 10% FBS and 1% PS.
a) Dilute the test compound (20 mM stock solution) to 10 mM with 100% DMSO as the starting concentration, and then serially dilute 3 times with a “9+0” concentration in 96-well dilution plate (Cat #P-05525, Labcyte);
b) Dilute compound solution thereof to 1:100 (1:20 for comparative compound 1 and compounds 1-38) in medium to prepare 10-fold working solution;
(§2) a) Centrifuge the growth cells in logarithmic phase at 1000 rpm for 5 minutes, resuspend the cells in culture medium, and then count the cells;
(§3) b) Inoculate the cells into a 96-well cell culture plate with a density of 2000 cells/well;
a) Compounds prepared at step 2 were added to cell plate with 15 μl per well, the final concentrations were 1000, 333, 111.1, 37, 12.3, 4.1, 1.4, 0.5, 0.2 and 0 nM, and the final concentration of DMSO was 0.1%. The blank control well was a culture medium (0.1% DMSO) (the blank control well of comparative compound 1 and compounds 1-38 was a culture medium (0.5% DMSO).
(§4) b) Incubate cells in an incubator for another 72 hours.
(§5) a) Take out the 96-well cell culture plate and add 50 μl CTG reagent (CellTiter Glo kit, promega, Cat #G7573);
(§6) b) Shake the plate for 2 minutes and let cool at room temperature for 10 minutes;
(§7) c) Read luminous signal value with PerkinElmer reader,
(§8) Analysis of Experimental Data
(§9) The data were analyzed by GraphPad Prism 6.0 software to obtain the fitting curve of compound activity.
Fitting compound IC50 from nonlinear regression equation:
(§10) Y=Min+(Max−Min)/(1+10^((Log IC50−X)*slope));
(§11) X: Logarithm of compound concentration; Y: luminous signal.

Assay [1] has as its target Ba/F3 cells with EGFR Δ19del/T790M/C797S mutation gene stably overexpressed (Homo sapiens, UniProt P00533, T790M/C797S, cells depend on it, form not given). As to the kind of experiment: Ba/F3-Δ19del/T790M/C797S cell proliferation assay (CellTiter Glo, 72 hours). In kind it is cell-based. As to conditions: Table 2, read-out: EGFR Δ19del/T790M/C797S IC50. Here is the method: as §1, §2, §3, §4, §5, §6, §7, §8, §9, §10, §11

The target of another assay is EGFR WT (Homo sapiens, UniProt P00533). Briefly: EGFR WT kinase test (mobility variation analysis, Caliper EZ Reader). In kind it is biochemical. As to conditions: kinase enzymatic activity, Table 1. An outline of the steps:
(§12)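 Read-out is substrate-to-product conversion by mobility shift, stopped after incubation at room temperature with ATP and substrate, following a 10-minute room-temperature compound–enzyme pre-incubation. IC50 obtained by four-parameter variable-slope fitting of inhibition normalized between enzyme-free and uninhibited controls.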

Another assay addresses EGFRΔ19del/T790M/C797S (Homo sapiens, UniProt P00533, T790M/C797S, form not given). Briefly: EGFR Δ19del/T790M/C797S kinase test (mobility variation analysis, Caliper EZ Reader). Format: biochemical. As to conditions: kinase enzymatic activity, Table 1. An outline of the steps:
as §12

Another assay concerns the target IGF1R (Homo sapiens, UniProt P08069). Briefly: IGF1R kinase test (mobility variation analysis, Caliper EZ Reader). In kind it is biochemical. The settings on record: kinase enzymatic activity, Table 1; read-out: EGFR IGF1R IC50. In short, it runs like this: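 Mobility-shift readout of substrate conversion, normalised to positive (no compound) and negative (no kinase) controls, gives % inhibition and IC50 by four-parameter fit. Compounds, 3-fold dilutions over 10 concentrations starting at 3000 nM, preincubated 10 min with kinase before ATP/substrate start; room temperature.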

Chain of EGFR WT (P00533 25-1210): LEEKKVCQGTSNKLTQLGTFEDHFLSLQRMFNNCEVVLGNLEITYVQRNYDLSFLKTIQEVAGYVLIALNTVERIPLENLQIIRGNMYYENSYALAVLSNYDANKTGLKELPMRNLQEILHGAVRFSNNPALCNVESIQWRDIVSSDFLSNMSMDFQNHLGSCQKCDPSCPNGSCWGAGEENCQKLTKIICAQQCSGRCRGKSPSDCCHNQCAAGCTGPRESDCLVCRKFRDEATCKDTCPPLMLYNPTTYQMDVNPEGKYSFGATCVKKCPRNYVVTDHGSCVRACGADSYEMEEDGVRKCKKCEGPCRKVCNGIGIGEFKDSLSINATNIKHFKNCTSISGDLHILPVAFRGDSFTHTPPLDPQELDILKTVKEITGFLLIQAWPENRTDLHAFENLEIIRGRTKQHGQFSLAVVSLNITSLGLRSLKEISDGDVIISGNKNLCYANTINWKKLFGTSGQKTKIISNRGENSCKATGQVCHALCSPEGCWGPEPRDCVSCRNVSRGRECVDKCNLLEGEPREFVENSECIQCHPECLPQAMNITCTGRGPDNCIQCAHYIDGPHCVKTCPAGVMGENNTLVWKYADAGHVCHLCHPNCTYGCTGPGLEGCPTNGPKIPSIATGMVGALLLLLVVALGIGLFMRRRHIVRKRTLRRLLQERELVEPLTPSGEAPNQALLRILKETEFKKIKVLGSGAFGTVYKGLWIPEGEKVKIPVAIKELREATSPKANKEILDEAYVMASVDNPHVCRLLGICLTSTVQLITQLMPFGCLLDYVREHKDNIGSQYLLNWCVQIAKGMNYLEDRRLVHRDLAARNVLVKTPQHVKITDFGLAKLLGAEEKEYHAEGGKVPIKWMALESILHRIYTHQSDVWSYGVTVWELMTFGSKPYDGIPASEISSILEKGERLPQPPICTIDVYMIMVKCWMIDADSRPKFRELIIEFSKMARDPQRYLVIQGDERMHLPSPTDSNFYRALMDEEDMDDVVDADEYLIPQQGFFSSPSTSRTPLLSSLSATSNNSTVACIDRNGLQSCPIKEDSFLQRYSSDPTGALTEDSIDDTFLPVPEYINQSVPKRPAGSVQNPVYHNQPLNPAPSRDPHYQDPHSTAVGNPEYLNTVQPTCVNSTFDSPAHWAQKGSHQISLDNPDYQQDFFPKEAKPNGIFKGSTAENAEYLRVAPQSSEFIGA
Chain of EGFRΔ19del/T790M/C797S (P00533 with tags, fused parts or gaps DEL746-750/T790M/C797S, form open): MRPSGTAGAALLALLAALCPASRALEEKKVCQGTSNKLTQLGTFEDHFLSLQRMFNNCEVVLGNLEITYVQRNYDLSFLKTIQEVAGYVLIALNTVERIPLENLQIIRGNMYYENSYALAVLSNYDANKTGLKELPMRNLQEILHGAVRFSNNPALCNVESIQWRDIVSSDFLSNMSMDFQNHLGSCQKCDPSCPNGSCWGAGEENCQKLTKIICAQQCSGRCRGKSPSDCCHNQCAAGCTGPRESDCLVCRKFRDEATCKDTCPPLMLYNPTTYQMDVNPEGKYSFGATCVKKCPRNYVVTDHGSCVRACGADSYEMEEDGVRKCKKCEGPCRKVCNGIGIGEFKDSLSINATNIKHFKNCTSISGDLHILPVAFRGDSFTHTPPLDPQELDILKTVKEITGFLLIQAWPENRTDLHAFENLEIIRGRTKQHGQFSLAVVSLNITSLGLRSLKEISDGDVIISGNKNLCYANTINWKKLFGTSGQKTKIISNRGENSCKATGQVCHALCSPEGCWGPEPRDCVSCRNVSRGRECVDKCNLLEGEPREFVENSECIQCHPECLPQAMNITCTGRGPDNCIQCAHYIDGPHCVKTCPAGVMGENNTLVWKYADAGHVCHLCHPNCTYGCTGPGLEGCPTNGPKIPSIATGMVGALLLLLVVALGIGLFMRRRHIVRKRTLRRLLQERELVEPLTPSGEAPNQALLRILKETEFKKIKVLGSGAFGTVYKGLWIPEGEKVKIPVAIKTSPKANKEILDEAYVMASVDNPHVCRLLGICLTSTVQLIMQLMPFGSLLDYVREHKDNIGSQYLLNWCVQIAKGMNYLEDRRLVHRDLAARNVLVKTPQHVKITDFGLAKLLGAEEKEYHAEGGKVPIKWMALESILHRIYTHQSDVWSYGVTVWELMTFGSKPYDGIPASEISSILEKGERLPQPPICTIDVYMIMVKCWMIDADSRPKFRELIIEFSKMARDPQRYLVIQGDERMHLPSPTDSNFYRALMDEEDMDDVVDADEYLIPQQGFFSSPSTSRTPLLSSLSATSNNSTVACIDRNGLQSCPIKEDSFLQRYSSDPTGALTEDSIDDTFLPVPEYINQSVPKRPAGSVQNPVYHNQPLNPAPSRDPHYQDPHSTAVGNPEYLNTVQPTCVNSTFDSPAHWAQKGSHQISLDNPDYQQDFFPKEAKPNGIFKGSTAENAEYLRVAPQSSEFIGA
Chain of Ba/F3 cells with EGFR Δ19del/T790M/C797S mutation gene stably overexpressed (P00533 with tags, fused parts or gaps DEL746-750/T790M/C797S, form open): as above
Chain of IGF1R (P08069 31-1367, species assumed): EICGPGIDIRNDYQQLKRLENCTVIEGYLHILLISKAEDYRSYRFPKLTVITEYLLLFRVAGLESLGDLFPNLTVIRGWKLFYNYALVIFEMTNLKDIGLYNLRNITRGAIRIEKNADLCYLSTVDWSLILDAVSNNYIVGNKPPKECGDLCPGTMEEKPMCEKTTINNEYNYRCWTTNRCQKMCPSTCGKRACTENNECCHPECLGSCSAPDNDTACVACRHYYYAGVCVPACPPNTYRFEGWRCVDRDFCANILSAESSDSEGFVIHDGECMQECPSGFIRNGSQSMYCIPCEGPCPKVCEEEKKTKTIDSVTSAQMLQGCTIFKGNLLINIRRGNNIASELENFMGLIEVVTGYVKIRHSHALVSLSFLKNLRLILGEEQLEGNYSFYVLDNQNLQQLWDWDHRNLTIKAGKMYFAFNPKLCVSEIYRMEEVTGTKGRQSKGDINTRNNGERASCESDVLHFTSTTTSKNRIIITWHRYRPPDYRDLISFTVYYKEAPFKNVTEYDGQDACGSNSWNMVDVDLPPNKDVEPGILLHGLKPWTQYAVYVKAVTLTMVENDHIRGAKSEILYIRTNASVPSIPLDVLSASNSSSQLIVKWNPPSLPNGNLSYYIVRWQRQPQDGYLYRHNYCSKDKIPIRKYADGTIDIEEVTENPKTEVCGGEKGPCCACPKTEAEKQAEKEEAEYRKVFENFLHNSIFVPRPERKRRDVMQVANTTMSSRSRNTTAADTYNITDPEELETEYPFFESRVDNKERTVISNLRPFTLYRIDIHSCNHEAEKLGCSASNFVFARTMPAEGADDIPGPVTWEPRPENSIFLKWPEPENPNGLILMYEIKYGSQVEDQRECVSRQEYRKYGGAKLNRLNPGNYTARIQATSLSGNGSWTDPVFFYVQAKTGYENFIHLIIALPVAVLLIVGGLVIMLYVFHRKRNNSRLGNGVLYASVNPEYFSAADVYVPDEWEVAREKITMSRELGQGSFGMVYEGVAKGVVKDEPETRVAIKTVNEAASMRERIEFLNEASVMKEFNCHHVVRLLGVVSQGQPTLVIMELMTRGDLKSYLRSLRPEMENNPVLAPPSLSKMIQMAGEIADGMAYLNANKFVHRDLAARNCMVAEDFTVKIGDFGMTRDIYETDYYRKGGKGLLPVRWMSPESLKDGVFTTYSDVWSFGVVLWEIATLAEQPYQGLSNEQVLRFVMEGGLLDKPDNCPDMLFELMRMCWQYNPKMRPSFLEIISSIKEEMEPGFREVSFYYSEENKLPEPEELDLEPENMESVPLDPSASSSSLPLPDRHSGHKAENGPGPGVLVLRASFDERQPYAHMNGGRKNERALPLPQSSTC

The term IC50 denotes the concentration that inhibits the measured activity by half. On to `CCc1cc(Nc2ncc(Cl)c(Nc3ccc(-c4nccc(OC)n4)cc3P(C)(C)=O)n2)c(OC)cc1N1CCC(N2CCN(C)CC2)CC1` [Compound 19, (2-((5-Chloro-2-((5-ethyl-2-methoxy-4-(4-(4-methylpiperazin-1-yl)piperidin-1-yl)phenyl)amino)pyrimidin-4-yl)amino)-5-(4-methoxypyrimidin-2-yl)phenyl)dimethylphosphine oxide], for which the IC50 with A431 came out at 864 nM; at EGFR WT, 22 nM; against EGFRΔ19del/T790M/C797S, 0.6 nM; at IGF1R, 144 nM. Moreover, the GI50 in assay [1] stood at 29.6 nM.
For `CCc1cc(Nc2ncc(Br)c(Nc3ccc(-c4ncc(C)cn4)cc3P(C)(C)=O)n2)c(OC)cc1N1CCC(N2CCN(C)CC2)CC1` [Compound 21, (2-((5-Bromo-2-((5-ethyl-2-methoxy-4-(4-(4-methylpiperazin-1-yl)piperidin-1-yl)phenyl)amino)pyrimidin-4-yl)amino)-5-(5-methylpyrimidin-2-yl)phenyl)dimethylphosphine oxide], the half-maximal inhibitory concentration (IC50) in the assay on A431 was 1390 nM; against EGFR WT, 25.6 nM; against EGFRΔ19del/T790M/C797S, 0.7 nM; on IGF1R it was 224 nM. The GI50 in assay [1] came to 8.8 nM.
On the same counts, the results for `CCc1cc(Nc2ncc(Br)c(Nc3ccc(-c4cncnc4)cc3P(C)(C)=O)n2)c(OC)cc1N1CCC(N2CCN(C)CC2)CC1` [Compound 22, (2-((5-Bromo-2-((5-ethyl-2-methoxy-4-(4-(4-methylpiperazin-1-yl)piperidin-1-yl)phenyl)amino)pyrimidin-4-yl)amino)-5-(pyrimidin-5-yl)phenyl)dimethylphosphine oxide] are 831 nM, 40.8 nM, 0.3 nM, 120 nM and 20.5 nM.
Regarding `CCc1cc(Nc2ncc(Cl)c(Nc3ccc(-c4cnc(OC)nc4)cc3P(C)(C)=O)n2)c(OC)cc1N1CCC(N2CCN(C)CC2)CC1` [Compound 25, (2-((5-Chloro-2-((5-ethyl-2-methoxy-4-(4-(4-methylpiperazin-1-yl)piperidin-1-yl)phenyl)amino)pyrimidin-4-yl)amino)-5-(2-methoxypyrimidin-5-yl)phenyl)dimethylphosphine oxide], the IC50 with A431 was 1700 nM; against EGFR WT it was 37.6 nM; at EGFRΔ19del/T790M/C797S, 0.4 nM; at IGF1R it was 169 nM. Further, the GI50 in assay [1] was 22.4 nM.
On the same counts, the results for `CCc1cc(Nc2ncc(Br)c(Nc3ccc(-c4ncc(OC)cn4)cc3P(C)(C)=O)n2)c(OC)cc1N1CCC(N2CCN(C)CC2)CC1` [Compound 30] are 8870 nM, 20.7 nM, 0.2 nM, 118 nM and 15.2 nM.
On the same counts, the results for `CCc1cc(Nc2ncc(Br)c(Nc3ccc(-c4ccc(C5CC5)nn4)cc3P(C)(C)=O)n2)c(OC)cc1N1CCC(N2CCN(C)CC2)CC1` [Compound 36, (2-((5-Bromo-2-((5-ethyl-2-methoxy-4-(4-(4-methylpiperazin-1-yl)piperidin-1-yl)phenyl)amino)pyrimidin-4-yl)amino)-5-(6-cyclopropylpyridazin-3-yl)phenyl)dimethylphosphine oxide] are 4640 nM, 35.5 nM, 0.2 nM, 219 nM and 22.3 nM.
The corresponding values for `CCc1cc(Nc2ncc(Br)c(Nc3ccc(-c4ccc(N(C)C)nn4)cc3P(C)(C)=O)n2)c(OC)cc1N1CCC(N2CCN(C)CC2)CC1` [Compound 37, (2-((5-Bromo-2-((5-ethyl-2-methoxy-4-(4-(4-methylpiperazin-1-yl)piperidin-1-yl)phenyl)amino)pyrimidin-4-yl)amino)-5-(6-(dimethylamino)pyridazin-3-yl)phenyl)dimethylphosphine oxide] are more than 10000 nM, 28.8 nM, 0.3 nM, 263 nM and 17.4 nM.
For the compound `CCc1cc(Nc2ncc(Br)c(Nc3ccc(-c4cnsc4)cc3P(C)(C)=O)n2)c(OC)cc1N1CCC(N2CCN(C)CC2)CC1` [Compound 38, (2-((5-Bromo-2-((5-ethyl-2-methoxy-4-(4-(4-methylpiperazin-1-yl)piperidin-1-yl)phenyl)amino)pyrimidin-4-yl)amino)-5-(isothiazol-4-yl)phenyl)dimethylphosphine oxide], the IC50 in the assay with A431 worked out at 711 nM; at EGFR WT, 11.1 nM; against EGFRΔ19del/T790M/C797S, 0.3 nM; at IGF1R, 64 nM. Besides, the GI50 in assay [1] came out at 11.2 nM.
The corresponding values for `CCc1cc(Nc2ncc(Cl)c(Nc3ccc(-c4nnc(C)o4)cc3P(C)(C)=O)n2)c(OC)cc1N1CCC(N2CCN(C)CC2)CC1` [Compound 45, (2-((5-Chloro-2-((5-ethyl-2-methoxy-4-(4-(4-methylpiperazin-1-yl)piperidin-1-yl)phenyl)amino)pyrimidin-4-yl)amino)-5-(5-methyl-1,3,4-oxadiazol-2-yl)phenyl)dimethylphosphine oxide] are 1080 nM, 31.5 nM, 0.4 nM, 124 nM and 26.2 nM.
With `CCc1cc(Nc2ncc(Br)c(Nc3ccc(-c4cn(C)c5ncccc45)cc3P(C)(C)=O)n2)c(OC)cc1N1CCC(N2CCN(C)CC2)CC1` [Compound 46, (2-((5-Bromo-2-((5-ethyl-2-methoxy-4-(-4-(4-methylpiperazin-1-yl)piperidin-1-yl)phenyl)amino)pyrimidin-4-yl)amino)-5-(1-methyl-1H-pyrrolo[2,3-b]pyridin-3-yl)phenyl)dimethylphosphine oxide], the IC50 in the assay with A431 worked out at 2300 nM; at EGFR WT, 47.6 nM; at EGFRΔ19del/T790M/C797S, 1.7 nM; at IGF1R, 628 nM. Also, the GI50 in assay [1] was determined as 30.3 nM.
On the same counts, the results for `CCc1cc(Nc2ncc(Br)c(Nc3ccc(-c4cnn(CCN5CCOCC5)c4)cc3P(C)(C)=O)n2)c(OC)cc1N1CCC(N2CCN(C)CC2)CC1` [Compound 47, (2-((5-Bromo-2-((5-ethyl-2-methoxy-4-(4-(4-methylpiperazin-1-yl)piperidin-1-yl)phenyl)amino)pyrimidin-4-yl)amino)-5-(1-(2-morpholinoethyl)-1hydro-pyrazol-4-yl)phenyl)dimethylphosphine oxide] are 771 nM, 15.5 nM, 0.9 nM, 60 nM and 23.4 nM.
On the same counts, the results for `CCc1cc(Nc2ncc(Br)c(Nc3ccc(-c4ccccc4C#N)cc3P(C)(C)=O)n2)c(OC)cc1N1CCC(N2CCN(C)CC2)CC1` [Compound 51, 4′-((5-Bromo-2-((5-ethyl-2-methoxy-4-(4-(4-methylpiperazin-1-yl)piperidin-1-yl)phenyl)amino)pyrimidin-4-yl)amino)-3′-(dimethylphosphoryl)-[1,1′-biphenyl]-2-carbonitrile] are 578 nM, 30.8 nM, 1.3 nM, 269 nM and 23.5 nM.
As to `CCc1cc(Nc2ncc(Br)c(Nc3ccc(-c4cn(C)nc4OC)cc3P(C)(C)=O)n2)c(OC)cc1N1CCC(N2CCN(C)CC2)CC1` [Compound 63], the IC50 in the assay with A431 turned out to be 512 nM; on EGFR WT it was 38.8 nM; against EGFRΔ19del/T790M/C797S it was 1.3 nM; on IGF1R, 335 nM. Moreover, the GI50 in assay [1] was 24.5 nM.
On the same counts, the results for `CCc1cc(Nc2ncc(Br)c(Nc3ccc(-c4cn(C)nc4C#N)cc3P(C)(C)=O)n2)c(OC)cc1N1CCC(N2CCN(C)CC2)CC1` [Compound 64, 4-(4-((5-Bromo-2-((5-ethyl-2-methoxy-4-(4-(4-methylpiperazin-1-yl)piperidin-1-yl)phenyl)amino]pyrimidin-4-yl)amino)-3-(dimethylphosphoryl)phenyl)-1-methyl-1H-pyrazole-3-carbonitrile] are more than 10000 nM, 43.1 nM, 0.8 nM, 330 nM and 47.3 nM.
